How the values were obtained:
[1] = target: T1, sEH (Homo sapiens, UniProt P34913); experiment: Inhibition of sEH (standard assays, stated in text); type: biochemical
T1 sequence (P34913 1-555): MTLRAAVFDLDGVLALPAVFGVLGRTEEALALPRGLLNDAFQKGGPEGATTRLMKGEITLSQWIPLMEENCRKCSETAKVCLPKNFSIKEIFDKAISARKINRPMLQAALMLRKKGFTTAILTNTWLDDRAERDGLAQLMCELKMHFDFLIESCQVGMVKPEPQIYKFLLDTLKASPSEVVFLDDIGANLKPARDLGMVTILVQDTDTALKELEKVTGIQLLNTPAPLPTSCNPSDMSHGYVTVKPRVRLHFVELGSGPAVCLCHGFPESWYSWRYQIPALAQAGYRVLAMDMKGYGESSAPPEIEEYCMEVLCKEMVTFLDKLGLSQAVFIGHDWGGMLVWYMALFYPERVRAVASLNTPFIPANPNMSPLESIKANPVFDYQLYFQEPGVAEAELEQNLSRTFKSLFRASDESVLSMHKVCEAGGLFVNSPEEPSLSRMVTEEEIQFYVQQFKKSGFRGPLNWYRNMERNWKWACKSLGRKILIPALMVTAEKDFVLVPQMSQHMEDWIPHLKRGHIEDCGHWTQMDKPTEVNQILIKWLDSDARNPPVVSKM
Text: Derivatives of urea are transition state mimetics that form a preferred group of sEH inhibitors. […] Any particular urea derivative or other compound can be easily tested for its ability to inhibit sEH by standard assays, such as those discussed herein. The production and testing of urea and carbamate derivatives as sEH inhibitors is set forth in detail in, for example, Morisseau et al., Proc Natl Acad Sci (USA) 96:8849-8854 (1999).
Any of a number of standard assays for determining epoxide hydrolase activity can be used to determine inhibition of sEH. […] Suitable in vitro assays are described in Zeldin et al., J. Biol. Chem. 268:6402-6407 (1993). Suitable in vivo assays are described in Zeldin et al., Arch Biochem Biophys 330:87-96 (1996).

[2] = Metabolic stability; type: in vitro ADME
[3] = test system: New Zealand white rabbits; experiment: Intraocular pressure in rabbits after treatment of the eye (tonometer); type: in vivo; conditions: one rabbit per treatment, 50 μL/eye; for Change in intraocular pressure (IOP treated eye minus control eye) after topical instillation: 100 μg/mL in artificial tears with 1% DMSO; for Time after treatment at which IOP decline appeared: 100 μg/mL, topical
Method: Female New Zealand white rabbits (2.7-3.0 kg) were obtained from Harlan (Indianapolis, Ind.). On test day, rabbits were lightly tranquilized with torbugesic/acepromazine at 0.04 mg/kg, administered subcutaneously. Ten to twenty minutes after administration of the tranquilizer, a drop of proparacaine hydrochloride (0.5% ophthalmic solution) was instilled in each eye to numb the eye prior to taking the intraocular pressure measurement. After 2-5 min, intraocular pressure in each eye (right and left) was measured using a tonometer (Tono-Pen®, Mentor Opthalmics, Santa Barbara, Calif.). Measurements were taken every 3-5 minutes to obtain baseline pressure. Then various treatments were applied (right eye) and after 3-5 minutes measurements were again taken every 3-5 minutes. Data are expressed as the change in intraocular pressure (“IOP”) in the treated eye compared to the control eye (IOP in treated eye—IOP in control eye). […] DMSO is also known to aid penetration through the skin. For a treatment to be effective, it must penetrate the cornea. Later treatments utilized subconjunctival injection. This delivers the compound below the conjunctiva where it is rapidly absorbed, avoiding issues of absorption.
Treatments: Each rabbit was administered one of the following treatments: (1). Epoxyeicosatrienoic acids (EETs) only, 100 μg/mL carboxylmethyl cellulose artificial tears containing 1% dimethyl sulfoxide (DMSO), 50 μL/eye (2). […] EETs only, 10 μg/mL carboxylmethyl cellulose artificial tears containing 1% DMSO, 0.1 cc/eye administered subconjunctivally (4).
Compounds used for the topical treatment of eye diseases become clinically useful only if they can penetrate the intact epithelium of the cornea and conjunctiva and achieve clinically useful concentrations within the eye. Thus for these trials we used both instillation by drops and by subconjunctival injections.

[4] = Stability of EETs on storage, handling and administration; type: physicochemical; conditions: if not exposed to acidic conditions or to sEH

Compound: CCCCCCCCCCCCNC(=O)NC12CC3CC(CC(C3)C1)C2 [ADU, N-Adamantyl-N′-dodecyl urea]
- Activity as an inhibitor of sEH [1]: particularly high activity
- Metabolic stability [2]: metabolically stable

Compound: O=C(O)CCCCCCCCCCCNC(=O)NC12CC3CC(CC(C3)C1)C2 [AUDA, 12-(3-Adamantan-1-yl-ureido)dodecanoic acid]
- Change in intraocular pressure (IOP treated eye minus control eye) after topical instillation [3]: distinct decline in pressure
- Time after treatment at which IOP decline appeared [3]: about 20 minutes

Compound: cis-Epoxyeicosatrienoic acids [EETs]
- Stability [4]: stable
- Change in intraocular pressure (IOP treated eye minus control eye) after topical instillation [3]: definite declining trend
- Time after treatment at which IOP decline appeared [3]: about 45 minutes

Reference: patent US20080279912A1, “Use of Cis-Epoxyeicosatrienoic Acids And Inhibitors of Soluble Epoxide Hydrolase to Alleviate Eye Disorders” (Regents of the University of California Office of …, priority 2005, published 2008)
